Measured values taken from patent US4060526A, “1-Heterocyclic alkyl-1,2,3,4-tetrahydroquinazolinones and analgesic intermediates thereof” (priority 1976, dated 1977).
Like-named read-outs stand apart in the source and are kept apart here.

Columns and labels:
[1] = test system: oxymorphone induced mydriasis; experiment: antagonism of oxymorphone induced mydriasis; type: in vivo, mice; conditions: mice; words
Procedure: (§1) The compounds of this invention were tested for their ability to antagonize narcotic analgesics by two different tests. […] Another test used for narcotic antagonist activity was published by Harris & Pearson. This test is modification of the D'Amour & Smith method.

[2] = phenylbenzoquinone writhing test, mouse; type: in vivo; conditions: mouse, in vivo, po, Mouse p.o.
Procedure: (§5) In addition to the hot plate method, the writhing test described by Sigmund et al., Soc. Exp. Biol. and Med. 95:729 (1957) has been applied in both rats and mice as further indication of analgesics. […] The stimulus of intraperitoneal injection of phenylbenzoquinone results in a writhing syndrome characterized by periodic twisting and stretching of the body with extension of the hind legs. […] The dose of compound protecting 50% of the animals is determined and expressed as the ED50. Ten animals are used at each dose level.

[3] = test system: phenylbenzoquinone writhing; experiment: phenylbenzoquinone writhing test, mouse; type: in vivo; conditions: po; Mouse p.o.
Procedure: as §5

in vivo [4] = experiment: in vivo
heat stimulus [5] = experiment: mouse hot plate test (Eddy and Leimbach, modified); conditions: Mus musculus, read-out: Hot Plate ED50
in vivo [6] = conditions: mouse
acute toxicity, cat = conditions: in vivo, ip; Cat i.p.; preliminary result (740-222)
Procedure: (§2) Compounds were administered in 2% clearjel as a suspension except in
(§3) Toxicities have only been run with male animals to date.

acute toxicity, rat = conditions: in vivo, sc; Rat s.c.; preliminary result
Procedure: as §2, §3

in vivo [7] = experiment: in vivo; remark: listed apart in the source
NARCOTIC ANTAGONISM = experiment: narcotic antagonism (Table IV); type: in vivo; conditions: I.P.
Procedure: as §1
(§4) In the original method the time required for rats to flick their tails following application of a heat stimulus is taken as a measure of analgesic potency.

sciatic nerve = experiment: local anesthesia, sciatic block; type: in vivo, mice; conditions: Pos. = blockade took place and leg and foot returned to normal after a time
From the text: An effective local anesthetic causes a blockade of the nerves of the lower leg and foot causing the animal, when permitted to walk, to do so flatfooted, rather than its normal habit, up on its toes. Alternatively an effective local anesthetic, by the sciatic block method, can cause the leg to be dragged by the animal when walking so long as effective sciatic block persists. Toxic agents may effect the same apparent results, but the blockade effected by toxic agents is irreversible. However, in contrast to toxic agents, an effective local anesthetic permits recovery of the use of the leg and foot after a period of time.
The mice used in the sciatic block test were placed in a holder with their hind limbs extended. A quantity of the test compound (e.g. 0.05 ml) was injected into the area surrounding the sciatic nerve at the juncture of the two major leg muscles. Effective local anesthetic activity is indicated in Table IV ("Pos." --meaning that the blockade did take place and that the leg and foot returned to normal after a time.)

MOUSE TAIL STIMULATION = experiment: mouse tail stimulation analgesia; conditions: for ED50: Mus musculus, sc, read-out: MOUSE TAIL STIMULATION ED50
heat stimulus [8] = experiment: D'Amour Smith Rat Tail Flick; type: in vivo; conditions: Sub. cut.
From the text: as §4

SMILES | LD50 (in vivo [7]; ip) [mg/kg] | NOAEL (in vivo [7]; ip) [mg/kg] | NARCOTIC ANTAGONISM (NARCOTIC ANTAGONISM) | LOCAL ANESTHESIA SCIATIC BLOCK (sciatic nerve) | further results
COc1ccc2c3c1O[C@H]1[C@@H](O)C=C[C@H]4[C@@H](C2)N(C)CC[C@@]341 [Codeine, reference compound] | – | – | – | – | effect of narcotic agents on pupil size [1]: no change or an increase in the pupil size; selectivity ratio ([2]; HNSD = highest dose without gross symptoms, read-out: HNSD./ED50 Writhing): 5.9; selectivity ratio ([2]; read-out: LD50 /ED50 Writhing): 32; ED50 [3]: 17 mg/kg; LD50 at 48 h (in vivo [4]; mouse, ip): 104 mg/kg; LD50 at 48 h (in vivo [4]; mouse, po): 540 mg/kg; ED50 (heat stimulus [5]; ip): 12 mg/kg; ED50 (heat stimulus [5]; po): 20 mg/kg; selectivity ratio (in vivo [6]; ip, HNSD./ED50 H.P., Mouse i.p., HNSD = highest dose without gross symptoms): 2.6; selectivity ratio (in vivo [6]; ip, LD50 /ED50 H.P., Mouse i.p.): 8.7; selectivity ratio (in vivo [6]; po, HNSD./ED50 H.P., Mouse p.o., HNSD = highest dose without gross symptoms): 5; selectivity ratio (in vivo [6]; po, LD50 /ED50 H.P., Mouse p.o.): 27
NC(=O)c1ccccc1NCCN1CCN(c2ccccc2)CC1 [Example 730-372A, 2-[2-(4-[1-Phenyl]piperazinyl)ethylamino]-benzamide] | – | – | – | – | LD50 at 48 h (acute toxicity, cat): > 1000 mg/kg; LD50 at 48 h (acute toxicity, rat): > 1000 mg/kg; LD50 at 48 h (in vivo [4]; ip, Mouse i.p., read-out: LD50 (48 hr)): > 1000 mg/kg; LD50 at 48 h (in vivo [4]; iv, Mouse i.v., solution (5mg/ml) in distilled water, read-out: LD50 (48 hr)): 50 mg/kg; LD50 at 48 h (in vivo [4]; po, Mouse p.o., read-out: LD50 (48 hr)): > 1000 mg/kg; LD50 at 48 h (in vivo [4]; sc, Mouse s.c., read-out: LD50 (48 hr)): > 1000 mg/kg
Cl.Cl.Cl.NC(=O)c1ccccc1NCCN1CCN(Cc2ccccc2)CC1 [Example XX, 2-(2-[4-Benzyl-1-piperazinyl]ethylamino)benzamide trihydrochloride] | 100 | 10 | Positive | – | –
CS(=O)(=O)O.O=C1NC(c2ccccc2)N(CCN2CCC(O)(c3ccccc3)CC2)c2ccccc21 (stereo not shown) [Example XXVI, 1-[2-(4-Hydroxy-4-phenylpiperidino)ethyl]-2-phenyl-1,2,3,4-tetrahydro-4-quinazolinone Methanesulfonate] | 200 | 3 | Negative | Positive | –
NC(=O)c1ccccc1N(CCN1CCC(O)(c2ccccc2)CC1)Cc1ccccc1 [Example XXVII (Step 4 Title Compound), 2-[Benzyl-(2-[4-hydroxy-4-phenylpiperidyl]ethyl)amino]benzamide] | 60 | 10 | – | – | –
CCC(=O)OC1(c2ccccc2)CCN(CCN(Cc2ccccc2)c2ccccc2C(N)=O)CC1 [Example XXVII (Step 5 Title Compound)] | 100 | 3 | Negative | – | –
CCC(=O)OC1(c2ccccc2)CCN(CCNc2ccccc2C(N)=O)CC1 [Example XXVII, 2-[2-(4-propionoxy-4-phenylpiperidyl)ethylamino]benzamide] | 60 | 0.1 | – | – | ED50 (MOUSE TAIL STIMULATION): 0.03 mg/kg
CCOC(=O)C1(c2ccccc2)CCN(C)CC1 [Merperidine, reference compound] | 130 | 30 | Negative | Positive | ED50 (MOUSE TAIL STIMULATION): 1.8 mg/kg
CN1CC[C@]23c4c5ccc(O)c4O[C@H]2[C@@H](O)C=C[C@H]3[C@H]1C5 [Morphine, reference compound] | – | – | Negative | – | MOUSE TAIL STIMULATION ED50 (MOUSE TAIL STIMULATION; S.C.): 1.5 mg/kg; Rat Tail Flick ED50 (heat stimulus [8]): 15 mg/kg
CC(C)=CCN1CCC2(C)c3cc(O)ccc3CC1C2C (stereo not shown) [Pentazocine, reference compound] | 140 | 30 | Positive | Positive | –
COc1ccc(N2CCN(CCNc3ccccc3C(N)=O)CC2)cc1 [VII, 2-[2-(1-[p-Methoxyphenyl]-4-piperazinyl)ethylamino] benzamide] | 300 | 3 | Positive | Positive | –
COC(=O)c1ccccc1NCCN1CCN(c2ccccc2)CC1 [XII, Methyl 2-[2-(1-phenyl-4-piperazinyl)ethylamino]benzoate] | 300 | 300 | Negative | Positive | –
CC(CNc1ccccc1C(N)=O)N1CCN(c2ccccc2)CC1.Cl (stereo not shown) [XIV, 2-[2-(4-phenyl-1-piperazinyl)propylamino]benzamide hydrochloride] | 300 | 10 | Positive | Positive | –
NC(=O)c1cc([N+](=O)[O-])ccc1NCCN1CCN(c2ccccc2)CC1 [XIX, 5-Nitro-2-(2-[4-phenyl-1-piperazinyl]ethylamino)benzamide] | – | – | Negative | – | LD50 (in vivo [7]; po): 300 mg/kg
CNC(=O)c1ccccc1NCCN1CCN(c2ccccc2)CC1 [XV, 2-(2-[4-phenyl-1-piperazinyl]ethylamino)-N-methylbenzamide] | 200 | 3 | Positive | Positive | –
Cl.O=C(c1ccccc1NCCN1CCN(c2ccccc2)CC1)N1CCOCC1 [XVI, N-(2-[2-(1-phenyl-4-piperazinyl)ethylamino]benzoyl) morpholine hydrochloride] | 250 | 10 | Positive | – | ED50 (MOUSE TAIL STIMULATION): 30 mg/kg
Cl.NC(=O)c1ccccc1NCCN1CCN(CCc2ccccc2)CC1 [XVII, 2-[2-(4-phenethyl-1-piperazinyl)ethylamino]benzamide hydrochloride] | 70 | 10 | Negative | Positive | –
COc1ccc(NCCN2CCN(c3ccccc3)CC2)c(C(N)=O)c1 [XVIII, 5-Methoxy-2-(2[4-phenyl-1-piperazinyl]ethylamino)benzamide] | 300 | 1 | Positive | – | –
Cl.NC(=O)c1cc(N)ccc1NCCN1CCN(c2ccccc2)CC1 [XXI, 5-Amino-2-(2-[4-phenyl-1-piperazinyl]-ethylamino)benzamide hydrochloride] | 200 | 10 | Positive | Positive | –
O=C(Nc1ccccc1)c1ccccc1NCCN1CCN(c2ccccc2)CC1 [XXII, 2-[2-(1-Phenyl-4-piperazinyl)ethylamino]-N-phenylbenzamide] | 300 | 0.3 | Positive | Negative | –
CCOc1ccc(NCCN2CCN(c3ccccc3)CC2)c(C(N)=O)c1 [XXIV, 5-Ethoxy-2-(2-[4-phenyl-1-piperazinyl]ethylamino)benzamide] | 300 | 30 | Negative | – | –
CCC(=O)OC1(c2ccccc2)CCN(CCNc2ccccc2C(=O)NC)CC1 [XXIX, 2-[2-(4-Propionoxy-4-phenylpiperidyl)ethylamino]-N-methyl-benzamide] | – | – | – | – | LD50 (in vivo [7]; po): 16 mg/kg
CCC(=O)OC1(c2ccccc2)CCN(CCN(Cc2ccccc2)c2ccccc2C(=O)NC)CC1 [XXVIII, 2-[Benzyl-(2-[4-propionoxy-4-phenylpiperidyl]ethyl)amino]-N-methyl-benzamide] | – | – | – | – | LD50 (in vivo [7]; po): 250 mg/kg
NC(=O)c1ccccc1NCCN1CCC(c2ccccc2)CC1 [XXX, 2-[2-(4-phenyl-1-piperidyl)ethylamino]benzamide] | 200 | 10 | Positive | Positive | –
NC(=O)c1ccccc1NCCN1CCCCC1 [XXXI, 2-[N-β-(1-Piperidinoethyl)amino]benzamide] | 40 | 10 | Positive | – | –
CC(CN1CCN(c2ccccc2)CC1)Nc1ccccc1C(N)=O (stereo not shown) [XXXII, 2-[1-methyl-2-(4-phenyl-1-piperazinyl)ethylamino]benzamide] | 300 | 3 | Negative | – | –
